Assays:
[1] = tested on: HCT116 cells; experiment: Measurement of growth inhibitory activity using HCT116 cell; type: cell-based; settings: Homo sapiens, HCT-116, 72 h, 1 μM compound, 3 days, CellTiter-Glo, read-out: Rate of inhibition of cell growth at compound concentration of 1 μM
Experimental: Measurement of Growth Inhibitory Activity Using HCT116 Cell
Each compound was evaluated for its growth inhibitory activity against HCT116 cells (ATCC) by the following method: the HCT116 cells were inoculated at 900 cells/40 μL/well to a 384-well white plate (Greiner Bio-one) and maintained in an assay medium (RPMI medium (Wako Pure Chemical Industries, Ltd.) containing 2% fetal bovine serum, 50 units/mL penicillin and 50 μg/mL streptomycin (Invitrogen Corp.)). On the next day, the test compound dissolved in dimethyl sulfoxide (DMSO) was dispensed to the plate using TECAN D300 digital dispenser (Tecan Trading AG). Then, the concentration of DMSO in the medium was adjusted to 0.1% by the addition of DMSO. The HCT116 cells supplemented with the compound were incubated at 37° C. in a 5% CO2 environment (test compound addition group).
Also, the same reaction as above was carried out without the addition of the test compound (test compound non-addition group).
Further, the same reaction as above was carried out on condition that neither the HCT116 cells nor the test compound were added (control group).
After 3 days, 20 μL of CellTiter-Glo reagent (Promega Corp.) was added to each well, and the mixture was stirred for 10 minutes. Then, the light emission of each well was measured using ARVO MX1420 (PerkinElmer, Inc.).
The rate of inhibition of HCT116 cell growth (%) was determined according to the following calculation expression:
Rate of inhibition of cell growth=(1−(Light emission of the test compound addition group−Light emission of the control group)/(Light emission of the test compound non-addition group−Light emission of the control group))×100

[2] = target: T1, SCD (Rattus norvegicus, UniProt P07308); experiment: Measurement of SCD inhibitory activity using microsome (TLC detection system); type: biochemical; settings: 1 μM compound; rat liver microsome fraction; [14C]stearoyl-CoA; read-out: Rate of inhibition of SCD activity at compound concentration of 1 μM
T1 construct: the obtained precipitate other than the glycogen layer was used as the microsome fraction; from tissue; host or cells: rat liver microsome fraction
T1 sequence (P07308 1-358): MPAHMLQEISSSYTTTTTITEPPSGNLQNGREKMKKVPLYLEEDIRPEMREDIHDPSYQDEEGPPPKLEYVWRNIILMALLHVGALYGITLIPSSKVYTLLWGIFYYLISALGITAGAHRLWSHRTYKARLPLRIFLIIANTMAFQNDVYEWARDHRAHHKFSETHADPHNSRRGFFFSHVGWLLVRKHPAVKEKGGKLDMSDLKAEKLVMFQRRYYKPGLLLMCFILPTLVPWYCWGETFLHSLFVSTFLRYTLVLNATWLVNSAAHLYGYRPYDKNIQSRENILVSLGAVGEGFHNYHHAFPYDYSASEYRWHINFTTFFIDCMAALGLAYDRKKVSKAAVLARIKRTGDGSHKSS
Experimental: Testing Method: Measurement of SCD Inhibitory Activity Using Microsome (TLC Detection System)
A microsome fraction was produced and preserved as follows: first, the liver was excised from a rat, thoroughly washed with PBS and then chopped. A microsome preparation buffer (0.25 M sucrose, 10 mM Tris-HCl, pH 7.4, protease inhibitor cocktail (F. Hoffmann-La Roche, Ltd.)) was added to the chopped liver, and the cells were disrupted using a POLYTORON homogenizer on ice. The homogenate thus obtained by the disruption was centrifuged at 10,000×g at 4° C. for 30 minutes to collect a supernatant. The centrifugation operation described above was repeated again for the obtained supernatant to obtain a supernatant again. The obtained supernatant was centrifuged at 40,000×g at 4° C. for 60 minutes, and the obtained precipitate other than the glycogen layer was used as the microsome fraction. The protein concentration of the microsome fraction was measured using BCA Protein Assay Kit (Pierce/Thermo Fisher Scientific, Inc.), and the microsome fraction was cryopreserved at −80° C. until use.
The SCD inhibitory activity of each test compound was measured as follows: first, the test compound was diluted into 10 mM with DMSO to obtain a primary dilution. The obtained primary dilution was diluted 3/1000 by the addition of 3× buffer (300 mM potassium phosphate, pH 7.4, 450 mM KCl, 30 mM NaF, 9 mM MgCl2, 4.5 mM glutathione reduced form (Wako Pure Chemical Industries, Ltd.), 0.3% BSA fatty acid free (Sigma-Aldrich Corp.) to obtain a secondary dilution. The secondary dilution was dispensed at 10 μL/well to a polypropylene 96-deep well block. Then, the microsome fraction diluted using a microsome buffer (10 mM Tris-HCl, pH 7.5, 250 mM sucrose) was added thereto at 10 μL/well (containing 10 μg of the protein). An enzyme reaction solution containing [^14C]stearoyl-CoA (American Radiolabeled Chemicals, Inc.) diluted into […] using 9 mM NADH (Sigma-Aldrich Corp.) was further added thereto at 10 μL/well. 30 minutes thereafter, 2.5 N NaOH was added thereto at 10 μL/well. After the completion of the addition, the deep well block was provided with a plate seal and then left standing overnight in a heat sterilizer set to 55° C. Subsequently to the standing, fatty acid extraction from the sample was carried out in accordance with the Bligh & Dyer method. Specifically, 200 μL of a formic acid:methanol:chloroform (1:6:3) solution was added to the sample thus left standing, and then, the mixture was stirred while the single-layer state was maintained. Further, 120 μL of pure water was added to the mixture to separate it into two layers. After the separation, a 10 μL aliquot was separated from the lower layer, spotted on a reverse-phase TLC plate (RP-18, 1154230001, Merck KGaA), and developed with an acetonitrile:pure water:acetic acid (95:4.5:0.5) solution. After drying, the TLC plate was transferred to Imaging Plate (Fuji Photo Film) for 5 hours or longer. Detection was carried out using FLA7000 (GE Healthcare Japan Corp.), and the obtained spot images were digitalized using ImageQuant TL (GE Healthcare Japan Corp.) to determine the rate of inhibition of SCD activity (%).

Row | SMILES | inhibition at 1 µM [1] | inhibition at 1 µM [2]
1 | OCc1nnc(-c2ccc(N3CCC(c4ccc(C(F)(F)F)cc4)(C(F)(F)F)CC3)nn2)o1 [Example 84, (5-(6-(4-(Trifluoromethyl)-4-(4-(trifluoromethyl)phenyl)piperidin-1-yl)pyridazin-3-yl)-1,3,4-oxadiazol-2-yl)methanol] | 88% | 93%
2 | COC1(c2ccc(S(F)(F)(F)(F)F)cc2)CCN(c2ccc(-c3nnc(CO)s3)nn2)CC1 [Example 111, (5-(6-(4-Methoxy-4-(4-(pentafluorosulfanyl)phenyl)piperidin-1-yl)pyridazin-3-yl)-1,3,4-thiadiazol-2-yl)methanol] | 86% | 96%
3 | OCc1nnc(-c2ccc(N3CCC(c4ccc(C(F)(F)F)cc4)(C(F)(F)F)CC3)nn2)s1 [Example 113, (5-(6-(4-(Trifluoromethyl)-4-(4-(trifluoromethyl)phenyl)piperidin-1-yl)pyridazin-3-yl)-1,3,4-thiadiazol-2-yl)methanol] | 84% | 95%
4 | N#CC1(c2ccc(S(F)(F)(F)(F)F)cc2)CCN(c2ccc(-c3nnc(CO)o3)nn2)CC1 [Example 58, 1-(6-(5-(Hydroxymethyl)-1,3,4-oxadiazol-2-yl)pyridazin-3-yl)-4-(4-(pentafluorosulfanyl)phenyl)piperidine-4-carbonitrile] | 88% | 92%
5 | N#CC1(c2ccc(S(F)(F)(F)(F)F)cc2)CCN(c2ccc(-c3nc(CO)ns3)nn2)CC1 [Example 108, 1-(6-(3-(Hydroxymethyl)-1,2,4-thiadiazol-5-yl)pyridazin-3-yl)-4-(4-(pentafluorosulfanyl)phenyl)piperidine-4-carbonitrile] | 90% | 95%
6 | COC1(c2ccc(S(F)(F)(F)(F)F)cc2)CCN(c2ccc(-c3nnc(CO)o3)nn2)CC1 [Example 93, (5-(6-(4-Methoxy-4-(4-(pentafluorosulfanyl)phenyl)piperidin-1-yl)pyridazin-3-yl)-1,3,4-oxadiazol-2-yl)methanol] | 85% | 94%
7 | OCc1nsc(-c2ccc(N3CCC(c4ccc(C(F)(F)F)cc4)(C(F)(F)F)CC3)nn2)n1 [Example 112, (5-(6-(4-(Trifluoromethyl)-4-(4-(trifluoromethyl)phenyl)piperidin-1-yl)pyridazin-3-yl)-1,2,4-thiadiazol-3-yl)methanol] | 90% | 96%
8 | COC1(c2ccc(S(F)(F)(F)(F)F)cc2)CCN(c2ccc(-c3nc(CO)ns3)nn2)CC1 [Example 110, (5-(6-(4-Methoxy-4-(4-(pentafluorosulfanyl)phenyl)piperidin-1-yl)pyridazin-3-yl)-1,2,4-thiadiazol-3-yl)methanol] | 89% | 94%
9 | OCc1noc(-c2ccc(N3CCC(c4ccc(C(F)(F)F)cc4)(C(F)(F)F)CC3)nn2)n1 [Example 82, (5-(6-(4-(Trifluoromethyl)-4-(4-(trifluoromethyl)phenyl)piperidin-1-yl)pyridazin-3-yl)-1,2,4-oxadiazol-3-yl)methanol] | 89% | 95%
10 | N#CC1(c2ccc(S(F)(F)(F)(F)F)cc2)CCN(c2ccc(-c3nnc(CO)s3)nn2)CC1 [Example 109, 1-(6-(5-(Hydroxymethyl)-1,3,4-thiadiazol-2-yl)pyridazin-3-yl)-4-(4-(pentafluorosulfanyl)phenyl)piperidine-4-carbonitrile] | 88% | 93%

From patent US20170015654A1, “PYRIDAZINE COMPOUND” (TAKEDA PHARMACEUTICAL COMPANY LIMITED, priority 2014, published 2017)
